In brackets after ≈: the same amount, converted by molar mass. Numbered stars: 1 amine (or outer) side, 2 acyl side, 3 side chain; on linkers, the order of the positions; unused ones are H or OH. Peptide text beside a SMILES is read from it. * marks the point of attachment. C20 diacid = O=C(O)CCCCCCCCCCCCCCCCCCC(=O)*; C18 diacid = O=C(O)CCCCCCCCCCCCCCCCC(=O)*; γGlu = O=C(O)[C@H](CCC(=O)[*:2])N[*:1]
Key:
rat calcitonin receptor = target: T1, rat calcitonin receptor (Rattus norvegicus, UniProt P32214); assay: Assay (VIII) binding to the rat calcitonin receptor; settings: membranes; read-out: rCT-R binding IC50
T1 construct: expressed in transfected cells; host or cells: BHK tk'ts 13 (transient, FuGENE 6)
T1 sequence (P32214 25-479 isoform P32214-2 limits assumed): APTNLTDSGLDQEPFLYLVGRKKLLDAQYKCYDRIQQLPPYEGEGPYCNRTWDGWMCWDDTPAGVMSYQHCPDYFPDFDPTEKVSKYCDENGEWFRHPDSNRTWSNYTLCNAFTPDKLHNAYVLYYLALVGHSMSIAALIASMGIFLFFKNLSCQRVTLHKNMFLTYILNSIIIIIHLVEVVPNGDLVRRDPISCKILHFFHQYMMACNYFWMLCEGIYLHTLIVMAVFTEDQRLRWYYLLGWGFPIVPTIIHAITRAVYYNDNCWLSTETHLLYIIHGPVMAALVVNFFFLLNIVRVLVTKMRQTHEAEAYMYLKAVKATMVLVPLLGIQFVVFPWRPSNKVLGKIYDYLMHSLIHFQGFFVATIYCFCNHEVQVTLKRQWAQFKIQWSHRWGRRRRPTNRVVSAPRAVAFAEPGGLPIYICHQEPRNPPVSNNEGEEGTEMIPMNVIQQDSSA
Description: The morning after, the plates were washed three times in HBSS (4° C.), and lyzed in Lysis buffer (0.1 M NaOH), 1% SDS. Scintillation cocktail (MicroScint40®) was added and the plates were shaken at 500 rpm for a short period. The plate was incubated at room temperature in the dark for 1 hour and Read on a TopCounter™ (Packard). The IC50 was calculated using (one site binding competition analysis) GraphPad Prism5 as a measure of receptor affinity. Assay (VIII)—Determination of Binding to the Rat Calcitonin Receptor
The assay was performed as described above (Assay (VII)—Determination of binding to the human calcitonin receptor) with the exception that we used membranes prepared from BHK tk'ts 13 cells that were transiently transfected with the rat calcitonin receptor. The BHK tk'ts 13 cells were transiently transfected with rat calcitonin receptor using FuGENE® 6 (Roche), according to the manufacturer's recommendations. Cells were grown in DMEM with 10% FBS and 1% Pen/Strep.

[1] = Assay (IV) determination of solubility; format: physicochemical
Description: Assay (IV)—Determination of Solubility
The mimylin peptide was dissolved in water at ˜500 nmol/ml and mixed 1:1 with a series of buffers (100 mM glycylglycine pH 3.0, 100 mM glycylglycine pH 4.0, 100 mM glycylglycine pH 5.0, 100 mM bistrispropane pH 6.0, 100 mM bistrispropane pH 6.5, 100 mM bistrispropane pH 7.0, 100 mM bistrispropane pH 7.5, 100 mM bistrispropane pH 8.0).

| SMILES | IC50 (rat calcitonin receptor) | Solubility ([1]; pH 3.0) | Solubility ([1]; pH 4.0) | Solubility ([1]; pH 5.0) | Solubility ([1]; pH 6.0) | Solubility ([1]; pH 6.5) | Solubility ([1]; pH 7.0) | Solubility ([1]; pH 7.5) | Solubility ([1]; pH 8.0) | solubility at 18 h ([1]; pH 4.0) | solubility at 18 h ([1]; pH 5.0) |
| --- | --- | --- | --- | --- | --- | --- | --- | --- | --- | --- | --- |
| CC(C)C[C@H](NC(=O)[C@H](C)NC(=O)[C@H](C)NC(=O)[C@@H](NC(=O)[C@H](CO)NC(=O)[C@H](CC(C)C)NC(=O)[C@H](CCC(=O)O)NC(=O)[C@H](CO)NC(=O)[C@H](C)NC(=O)CCCCCCCCCCCCCCCCC(=O)O)[C@@H](C)O)C(=O)NCC(=O)N[C@@H](CCCNC(=N)N)C(=O)N[C@@H](CC(C)C)C(=O)N[C@@H](CO)C(=O)N[C@@H](C)C(=O)N[C@@H](CCC(=O)O)C(=O)N[C@@H](CC(C)C)C(=O)N[C@@H](Cc1cnc[nH]1)C(=O)N[C@@H](CCC(=O)O)C(=O)N[C@@H](CC(C)C)C(=O)N[C@@H](C)C(=O)N[C@H](C(=O)N[C@@H](CC(C)C)C(=O)N1CCC[C@H]1C(=O)N[C@@H](CCCNC(=N)N)C(=O)N[C@H](C(=O)N[C@@H](CCC(=O)O)C(=O)N[C@H](C(=O)NCC(=O)N[C@@H](CO)C(=O)NCC(=O)N[C@@H](CO)C(=O)N1CCC[C@H]1C(N)=O)[C@@H](C)O)[C@@H](C)O)[C@@H](C)O [compound 48, [N-terminal(C18 diacid), des1, 30S, 31G]mimylin] ({C18 diacid}-ASELSTAALGRLSAELHELATLPRTETGSGSP-NH2) | 0.013 nM | ≧200 μM | ≧200 μM | ≧200 μM | ≧200 μM | ≧200 μM | ≧200 μM | ≧200 μM | ≧200 μM |  |  |
| CC(C)C[C@H](NC(=O)[C@H](CCCNC(=N)N)NC(=O)CNC(=O)[C@H](CC(C)C)NC(=O)[C@@H](NC(=O)[C@H](C)NC(=O)[C@@H](NC(=O)[C@H](CO)NC(=O)[C@H](CC(C)C)NC(=O)[C@H](CCC(N)=O)NC(=O)[C@H](CO)NC(=O)[C@H](C)NC(=O)CC[C@H](NC(=O)CCCCCCCCCCCCCCCCCCC(=O)O)C(=O)O)[C@@H](C)O)C(C)C)C(=O)N[C@@H](CO)C(=O)N[C@@H](CCC(N)=O)C(=O)N[C@@H](CCCNC(=N)N)C(=O)N[C@@H](CC(C)C)C(=O)N[C@@H](Cc1cnc[nH]1)C(=O)N[C@@H](CCCNC(=N)N)C(=O)N[C@@H](CC(C)C)C(=O)N[C@@H](CCC(N)=O)C(=O)N[C@H](C(=O)N[C@@H](Cc1ccc(O)cc1)C(=O)N1CCC[C@H]1C(=O)N[C@@H](CCCNC(=N)N)C(=O)N[C@H](C(=O)N[C@@H](CCC(N)=O)C(=O)N[C@H](C(=O)NCC(=O)N[C@@H](CO)C(=O)N[C@@H](CCC(N)=O)C(=O)N[C@H](C(=O)N[C@@H](Cc1ccc(O)cc1)C(N)=O)[C@@H](C)O)[C@@H](C)O)[C@@H](C)O)[C@@H](C)O [compound 132, [N-terminal(C20 diacid-gGlu), des1, 4Q, 9V, 15Q, 16R, 19R, 21Q, 23Y, 27Q, 30S, 31Q, 32T, 33Y]mimylin] ({C20 diacid-γGlu}-ASQLSTAVLGRLSQRLHRLQTYPRTQTGSQTY-NH2) | 0.069 nM |  |  |  |  |  |  |  |  |  |  |
| CC(C)C[C@H](NC(=O)[C@H](CO)NC(=O)[C@H](C)NC(=O)[C@@H](NC(=O)[C@H](CO)NC(=O)[C@H](CC(C)C)NC(=O)[C@H](CCC(=O)O)NC(=O)[C@H](CO)NC(=O)[C@H](C)NC(=O)CC[C@H](NC(=O)CCCCCCCCCCCCCCCCCCC(=O)O)C(=O)O)[C@@H](C)O)C(=O)NCC(=O)N[C@@H](CCCNC(=N)N)C(=O)N[C@@H](CC(C)C)C(=O)N[C@@H](CO)C(=O)N[C@@H](C)C(=O)N[C@@H](CCC(=O)O)C(=O)N[C@@H](CC(C)C)C(=O)N[C@@H](Cc1cnc[nH]1)C(=O)N[C@@H](CCC(=O)O)C(=O)N[C@@H](CC(C)C)C(=O)N[C@@H](C)C(=O)N[C@H](C(=O)N[C@@H](Cc1ccc(O)cc1)C(=O)N1CCC[C@H]1C(=O)N[C@@H](CCCNC(=N)N)C(=O)N[C@H](C(=O)N[C@@H](CCC(=O)O)C(=O)N[C@H](C(=O)NCC(=O)N[C@@H](CO)C(=O)NCC(=O)N[C@@H](CO)C(=O)N[C@@H](Cc1ccc(O)cc1)C(N)=O)[C@@H](C)O)[C@@H](C)O)[C@@H](C)O [compound 91, [N-terminal(C20 diacid-gGlu), des1, 9S, 23Y, 30S, 31G, 33Y]mimylin] ({C20 diacid-γGlu}-ASELSTASLGRLSAELHELATYPRTETGSGSY-NH2) |  | ≧200 μM |  |  | ≧200 μM | ≧200 μM | ≧200 μM | ≧200 μM | ≧200 μM | 7 µM (≈ 26.7 µg/mL) | 29 µM (≈ 110 µg/mL) |
| CC(C)C[C@H](NC(=O)[C@H](CCC(=O)O)NC(=O)[C@H](Cc1cnc[nH]1)NC(=O)[C@H](CC(C)C)NC(=O)[C@H](CCC(=O)O)NC(=O)[C@H](C)NC(=O)[C@H](CO)NC(=O)[C@H](CC(C)C)NC(=O)[C@H](CCCNC(=N)N)NC(=O)CNC(=O)[C@H](CC(C)C)NC(=O)[C@@H](NC(=O)[C@H](C)NC(=O)[C@@H](NC(=O)[C@H](CO)NC(=O)[C@H](CC(C)C)NC(=O)[C@H](CCC(=O)O)NC(=O)[C@H](CO)NC(=O)[C@H](C)NC(=O)[C@H](CCC(=O)O)NC(=O)CCCCCCCCCCCCCCCCC(=O)O)[C@@H](C)O)C(C)C)C(=O)N[C@@H](C)C(=O)N[C@H](C(=O)N[C@@H](CC(C)C)C(=O)N1CCC[C@H]1C(=O)N1CCC[C@H]1C(=O)N[C@H](C(=O)N[C@@H](CCC(=O)O)C(=O)N[C@H](C(=O)NCC(=O)N1CCC[C@H]1C(=O)N[C@@H](CCC(=O)O)C(=O)N[C@@H](CO)C(=O)N1CCC[C@H]1C(N)=O)[C@@H](C)O)[C@@H](C)O)[C@@H](C)O [compound 31, [N-terminal(C18 diacid), 9V, 25P]mimylin] ({C18 diacid}-EASELSTAVLGRLSAELHELATLPPTETGPESP-NH2) |  | ≧200 μM | ≧200 μM | ≧200 μM | ≧200 μM | ≧200 μM | ≧200 μM | ≧200 μM | ≧200 μM |  |  |
| CC[C@H](C)[C@H](NC(=O)[C@H](C)NC(=O)[C@@H](NC(=O)[C@H](CO)NC(=O)[C@@H](NC(=O)[C@H](CCC(=O)O)NC(=O)[C@H](CO)NC(=O)[C@H](C)NC(=O)[C@H](CCC(=O)O)NC(=O)CCCCCCCCCCCCCCCCC(=O)O)[C@@H](C)CC)[C@@H](C)O)C(=O)N[C@H](C(=O)NCC(=O)N[C@@H](CCCNC(=N)N)C(=O)N[C@@H](CC(C)C)C(=O)N[C@@H](CO)C(=O)N[C@@H](C)C(=O)N[C@@H](CCC(=O)O)C(=O)N[C@@H](CC(C)C)C(=O)N[C@@H](Cc1cnc[nH]1)C(=O)N[C@@H](CCC(=O)O)C(=O)N[C@H](C(=O)N[C@@H](C)C(=O)N[C@H](C(=O)N[C@@H](CC(C)C)C(=O)N1CCC[C@H]1C(=O)N[C@@H](CCCNC(=N)N)C(=O)N[C@H](C(=O)N[C@@H](CCC(=O)O)C(=O)N[C@H](C(=O)NCC(=O)N1CCC[C@H]1C(=O)N[C@@H](CCC(=O)O)C(=O)N[C@@H](CO)C(=O)N1CCC[C@H]1C(N)=O)[C@@H](C)O)[C@@H](C)O)[C@@H](C)O)[C@@H](C)CC)[C@@H](C)CC [compound 77, [N-terminal(C18 diacid), 5I, 9I, 10I, 20I]mimylin] ({C18 diacid}-EASEISTAIIGRLSAELHEIATLPRTETGPESP-NH2) |  | ≧200 μM |  |  | ≧200 μM | ≧200 μM | ≧200 μM | ≧200 μM | ≧200 μM | 7 µM (≈ 26.4 µg/mL) | 11 µM (≈ 41.5 µg/mL) |
